Data published in US12403160B2, “Injection composition containing isolated mitochondria, and use thereof” (Paean Biotechnology Inc., priority 2020, dated 2025).

How the values were obtained:
platelets = tested on: platelets
Method: After treatment, the resultant was incubated with shaking at 100 rpm at 37° C. for one hour.

[1] = tested on: platelets isolated from pig whole blood; assay: Effect of storage solvent for mitochondria and antithrombotic agent on platelet aggregation; type: cell-based
Method: Pig whole blood was centrifuged at 300×g for 5 minutes to obtain a cloudy yellow supernatant containing platelets and plasma. […] The obtained platelet precipitate was replaced with an equal amount of Dulbecco's phosphate-buffered saline (DPBS) solution, washed by centrifugation at 1,500×g for 15 minutes, and resuspended in an equal amount of a fresh DPBS solution.
In order to confirm the effect of a storage solvent for mitochondria and an antithrombotic agent on inhibition of platelet aggregation, the mitochondria of human umbilical cord-derived mesenchymal stem cells (UC-hMSC) were isolated and stored in saline and SHE solution, which is a storage solvent, for one hour, respectively, and the resultant was treated with the platelets isolated from pig whole blood and then treated with heparin. After 1 hour, the result was confirmed with a confocal laser scanning microscope.

platelets in the blood = assay: Number of platelets in the blood after intravenous injection of mitochondria; type: in vivo, BALB/c-nu/nu mice; conditions: UC-hMSC mitochondria 50 μg/0.3 mL, single intravenous injection, mice
Method: The specific experimental design, which was performed so as to confirm the effect of reducing the number of platelets during intravascular injection of mitochondria into mice, is as shown in Table 2 below.

Row | Compound | glycine concentration at which mitochondria-induced platelet aggregation is inhibited (platelets; 1 μg UC-hMSC mitochondria in 10 μL Tris-trehalose buffer with glycine 0-100 mM, 1 mL platelet solution, 37° C., one hour) | inhibition of mitochondria-induced platelet aggregation at low glycine concentration (platelets; low concentration of glycine in Tris-trehalose buffer) | inhibition of mitochondria-induced platelet aggregation with rising concentration of antithrombotic agent ([1]; UC-hMSC mitochondria stored in SHE solution) | inhibition of mitochondria-induced platelet aggregation by antithrombotic agent ([1]; UC-hMSC mitochondria stored in saline and SHE solution, pig platelets) | change in the number of platelets in the blood (platelets in the blood)
1 | NCC(=O)O [glycine] | ≥ 25 mM | could not inhibit platelet aggregation |  |  | 
2 | heparin |  |  | inhibited as the concentrations of heparin as an antithrombotic agent increased | partially inhibited | recovered to some extent, but the decrease in platelets was not completely inhibited
